The text below walks through data of ChEMBL document CHEMBL3526048, “In vitro metabolism of rivoglitazone, a novel peroxisome proliferator-activated receptor γ agonist, in rat, monkey, and human liver microsomes and freshly isolated hepatocytes” (Drug Metab Dispos, 2011).

Holding throughout (assay type): ADME
Data set [1] deals with T1, Cytochrome P450 1A2 (Homo sapiens, UniProt P05177).
T1 sequence (P05177 whole entry): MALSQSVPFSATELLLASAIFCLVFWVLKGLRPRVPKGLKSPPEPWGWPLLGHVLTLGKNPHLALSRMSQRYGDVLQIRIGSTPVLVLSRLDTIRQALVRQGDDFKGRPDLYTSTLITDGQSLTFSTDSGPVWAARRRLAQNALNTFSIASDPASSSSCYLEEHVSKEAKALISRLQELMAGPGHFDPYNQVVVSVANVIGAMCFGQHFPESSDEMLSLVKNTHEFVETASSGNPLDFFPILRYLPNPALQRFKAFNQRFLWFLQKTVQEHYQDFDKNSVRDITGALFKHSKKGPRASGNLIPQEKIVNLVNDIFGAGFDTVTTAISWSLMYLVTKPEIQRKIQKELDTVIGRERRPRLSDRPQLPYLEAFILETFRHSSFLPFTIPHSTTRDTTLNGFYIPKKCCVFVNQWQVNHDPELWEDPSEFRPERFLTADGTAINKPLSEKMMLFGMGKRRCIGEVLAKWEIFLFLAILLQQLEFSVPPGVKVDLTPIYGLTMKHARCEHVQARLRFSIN
The data set can be described thus: Activity of human CYP1A2 expressed in microsomes isolated from baculovirus infected insect cell assessed as enzyme-mediated 3-(4-((6-methoxy-1-methyl-1H-benzo[d]imidazol-2-yl)methoxy)phenyl)-2-(methylthio)propanoic acid formation at 20 uM after 2 hrs by radio-HPLC/LC-MS/MS analysis in presence of NADPH-generating system/SAM and UDPGA/SAM.

In data set [2] the target is T2, Cytochrome P450 2D6 (Homo sapiens, UniProt P10635). Nature of the data set: Activity of human CYP2D6 expressed in microsomes isolated from baculovirus infected insect cell assessed as enzyme-mediated (2S,3S,4S,5R,6R)-3,4,5-trihydroxy-6-(5-(4-((6-methoxy-1-methyl-1H-benzo[d]imidazol-2-yl)methoxy)benzyl)-2,4-dioxothiazolidin-3-yl)tetrahydro-2H-pyran-2-carboxylic acid formation at 20 uM after 2 hrs by radio-HPLC/LC-MS/MS analysis in presence of UDPGA and UDPGA/SAM.
T2 sequence (P10635 whole entry): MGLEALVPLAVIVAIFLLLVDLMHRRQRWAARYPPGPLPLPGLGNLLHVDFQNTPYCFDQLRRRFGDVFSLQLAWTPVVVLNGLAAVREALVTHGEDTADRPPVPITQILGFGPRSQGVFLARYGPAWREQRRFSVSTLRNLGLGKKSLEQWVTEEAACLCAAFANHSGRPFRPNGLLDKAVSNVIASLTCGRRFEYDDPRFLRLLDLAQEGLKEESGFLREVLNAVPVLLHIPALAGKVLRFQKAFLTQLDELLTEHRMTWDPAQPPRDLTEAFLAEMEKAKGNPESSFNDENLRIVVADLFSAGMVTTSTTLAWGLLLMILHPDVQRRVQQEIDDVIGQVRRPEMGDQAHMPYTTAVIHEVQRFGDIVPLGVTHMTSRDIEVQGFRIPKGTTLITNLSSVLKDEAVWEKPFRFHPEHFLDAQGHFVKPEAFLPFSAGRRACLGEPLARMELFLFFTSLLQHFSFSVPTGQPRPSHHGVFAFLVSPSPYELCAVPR

Data set [3] addresses T2, Cytochrome P450 2D6. The data set can be described thus: Activity of human CYP2D6 expressed in microsomes isolated from baculovirus infected insect cell assessed as enzyme-mediated 2-mercapto-3-(4-((6-methoxy-1-methyl-1H-benzo[d]imidazol-2-yl)methoxy)phenyl)propanamide formation at 20 uM after 2 hrs by radio-HPLC/LC-MS/MS analysis in presence of NADPH-generating system and NADPH-generating system/SAM.

In data set [4] the target is T3, UDP-glucuronosyltransferase 2B7 (Homo sapiens, UniProt P16662).
T3 sequence (P16662 whole entry): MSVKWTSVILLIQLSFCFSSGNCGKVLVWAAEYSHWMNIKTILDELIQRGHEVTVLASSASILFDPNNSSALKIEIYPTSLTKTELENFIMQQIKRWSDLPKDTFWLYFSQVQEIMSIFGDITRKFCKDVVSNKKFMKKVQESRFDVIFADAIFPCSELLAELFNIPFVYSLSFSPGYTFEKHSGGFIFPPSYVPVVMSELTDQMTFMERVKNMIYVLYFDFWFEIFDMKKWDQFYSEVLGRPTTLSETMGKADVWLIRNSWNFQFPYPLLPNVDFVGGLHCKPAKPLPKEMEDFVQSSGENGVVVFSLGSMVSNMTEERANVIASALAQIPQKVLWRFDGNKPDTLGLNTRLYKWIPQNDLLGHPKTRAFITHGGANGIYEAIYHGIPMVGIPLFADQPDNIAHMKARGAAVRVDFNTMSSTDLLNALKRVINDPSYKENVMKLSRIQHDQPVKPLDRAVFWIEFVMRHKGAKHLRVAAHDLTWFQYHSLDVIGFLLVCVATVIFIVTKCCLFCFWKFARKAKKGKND
Nature of the data set: Activity of human UGT2B7 expressed in microsomes isolated from baculovirus infected insect cell assessed as enzyme-mediated 5-(4-((6-methoxy-1H-benzo[d]imidazol-2-yl)methoxy)benzyl)thiazolidine-2,4-dione formation at 20 uM after 4 hrs by radio-HPLC/LC-MS/MS analysis in presence of NADPH-generating system and NADPH-generating system/SAM in presence of UDPGA and UDPGA/SAM.

Data set [5] deals with T4, UDP-glucuronosyltransferase 2B4 (Homo sapiens, UniProt P06133).
T4 sequence (P06133 whole entry): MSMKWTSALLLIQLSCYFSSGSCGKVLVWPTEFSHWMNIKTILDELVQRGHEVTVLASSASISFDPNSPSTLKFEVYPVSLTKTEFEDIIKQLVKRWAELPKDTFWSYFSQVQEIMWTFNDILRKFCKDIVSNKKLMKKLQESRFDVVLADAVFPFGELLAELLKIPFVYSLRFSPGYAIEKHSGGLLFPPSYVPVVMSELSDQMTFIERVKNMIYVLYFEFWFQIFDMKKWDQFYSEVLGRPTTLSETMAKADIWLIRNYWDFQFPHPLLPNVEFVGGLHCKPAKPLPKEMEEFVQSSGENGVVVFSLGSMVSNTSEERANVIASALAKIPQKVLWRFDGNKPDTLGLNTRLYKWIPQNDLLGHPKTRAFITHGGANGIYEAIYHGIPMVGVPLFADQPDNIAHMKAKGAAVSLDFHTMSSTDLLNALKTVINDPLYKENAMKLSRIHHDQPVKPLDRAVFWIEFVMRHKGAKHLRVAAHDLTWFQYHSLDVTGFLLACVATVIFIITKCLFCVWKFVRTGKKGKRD
Nature of the data set: Activity of human UGT2B4 expressed in microsomes isolated from baculovirus infected insect cell assessed as enzyme-mediated (2S,3S,4S,5R,6R)-6-((1-carboxy-2-(4-((6-methoxy-1-methyl-1H-benzo[d]imidazol-2-yl)methoxy)phenyl)ethylthio)carbonylamino)-3,4,5-trihydroxytetrahydro-2H-pyran-2-carboxylic acid formation at 20 uM after 4 hrs by radio-HPLC/LC-MS/MS analysis in presence of UDPGA.

Data set [6] has as its target T1, Cytochrome P450 1A2. Nature of the data set: Activity of human CYP1A2 expressed in microsomes isolated from baculovirus infected insect cell assessed as enzyme-mediated (2S,3S,4S,5R,6R)-6-((1-carboxy-2-(4-((6-methoxy-1-methyl-1H-benzo[d]imidazol-2-yl)methoxy)phenyl)ethylthio)carbonylamino)-3,4,5-trihydroxytetrahydro-2H-pyran-2-carboxylic acid formation at 20 uM after 2 hrs by radio-HPLC/LC-MS/MS analysis in presence of NADPH-generating system/SAM.

For `COc1ccc2nc(COc3ccc(C[14CH]4SC(=O)NC4=O)cc3)n(C)c2c1.Cl` (racemic), the Drug metabolism entry is “metabolite_not_detected” on Cytochrome P450 1A2 [1]; “metabolite_not_detected” at Cytochrome P450 2D6 [2]; “metabolite_detected” on Cytochrome P450 2D6 [3]; “metabolite_not_detected” in data set [4]; “metabolite_not_detected” in data set [5]; “metabolite_not_detected” at Cytochrome P450 1A2 [6].
